Tested on: LG0703-F948-PDC complex spheroid viability
Test: Anticancer human tumor LG0703-F948-PDC patient-derived lung adenocarcinoma cell line growth inhibition [RAS]
Conditions: for IC50: curve of first compound; for viability, T/C: stronger effect = lower value
Method in brief: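 Tumour cells grown as complex spheroids with HUVEC endothelial cells and mesenchymal stem cells, treated with RAS pathway inhibitor combinations. Each agent spans half-log steps from near clinical Cmax, or 10 microM where Cmax is unknown.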
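Also: spheroids exposed to agents for 7 days.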
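For viability, T/C in this document: 100% = DMSO vehicle wells.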

Which IC50 (second compound 0.000949 µM) does the source give for `CC1(C)CCC(Nc2ncc(C(F)(F)F)c(-c3c[nH]c4c(P(C)(C)=O)c(C#N)ccc34)n2)CN1` (centres undefined) + CCn1c(-c2cccnc2C(C)OC)c2c3cc(ccc31)N1CCOC(CC(NC(=O)C(C(C)C)N(C)C(=O)C3(F)CCN(C(=O)C#CC(C)(C)N(C)C)CC3)C(=O)N3CCCC(N3)C(=O)OCC(C)(C)C2)C1 here?
The IC50 was > 0.3 µM.

And the IC50 (second compound 0.003 µM)?
Its IC50 is > 0.3 µM.

What about the IC50 (second compound 0.00949 µM) of the same molecule?
Its IC50 is > 0.3 µM.

And the IC50 (second compound 0.03 µM)?
The IC50 was > 0.3 µM.

And the IC50 (second compound 0.0949 µM)?
The IC50 was > 0.3 µM.

What about the IC50 (second compound 0.3 µM) of the same molecule?
Its IC50 is < 0.000949 µM.

What about the viability, T/C (second compound 0.000949 µM, first compound 0.000949 µM) of the same molecule?
The viability, T/C was 83.4%.

What about the viability, T/C (second compound 0.000949 µM, first compound 0.003 µM) of the same molecule?
Its viability, T/C is 70.4%.

And the viability, T/C (second compound 0.000949 µM, first compound 0.00949 µM)?
Its viability, T/C is 67.1%.

And the viability, T/C (second compound 0.000949 µM, first compound 0.03 µM)?
The viability, T/C was 60.1%.

And the viability, T/C (second compound 0.000949 µM, first compound 0.0949 µM)?
Its viability, T/C is 67.3%.

What about the viability, T/C (second compound 0.000949 µM, first compound 0.3 µM) of the same molecule?
Its viability, T/C is 56.5%.

And the viability, T/C (second compound 0.003 µM, first compound 0.000949 µM)?
The viability, T/C was 89.2%.

What about the viability, T/C (second compound 0.003 µM, first compound 0.003 µM) of the same molecule?
The viability, T/C was 84.9%.

And the viability, T/C (second compound 0.003 µM, first compound 0.00949 µM)?
The viability, T/C was 58.1%.

What about the viability, T/C (second compound 0.003 µM, first compound 0.03 µM) of the same molecule?
The viability, T/C was 62.2%.

What about the viability, T/C (second compound 0.003 µM, first compound 0.0949 µM) of the same molecule?
Its viability, T/C is 61.5%.

What about the viability, T/C (second compound 0.003 µM, first compound 0.3 µM) of the same molecule?
Its viability, T/C is 68.7%.

And the viability, T/C (second compound 0.00949 µM, first compound 0.000949 µM)?
The viability, T/C was 75%.

What about the viability, T/C (second compound 0.00949 µM, first compound 0.003 µM) of the same molecule?
Its viability, T/C is 72.7%.

And the viability, T/C (second compound 0.00949 µM, first compound 0.00949 µM)?
The viability, T/C was 77.8%.

And the viability, T/C (second compound 0.00949 µM, first compound 0.03 µM)?
The viability, T/C was 57.7%.

What about the viability, T/C (second compound 0.00949 µM, first compound 0.0949 µM) of the same molecule?
Its viability, T/C is 64.8%.

What about the viability, T/C (second compound 0.00949 µM, first compound 0.3 µM) of the same molecule?
Its viability, T/C is 67.2%.

What about the viability, T/C (second compound 0.03 µM, first compound 0.000949 µM) of the same molecule?
The viability, T/C was 86.5%.

What about the viability, T/C (second compound 0.03 µM, first compound 0.003 µM) of the same molecule?
Its viability, T/C is 79.5%.

What about the viability, T/C (second compound 0.03 µM, first compound 0.00949 µM) of the same molecule?
The viability, T/C was 62.6%.

What about the viability, T/C (second compound 0.03 µM, first compound 0.03 µM) of the same molecule?
The viability, T/C was 66.1%.

What about the viability, T/C (second compound 0.03 µM, first compound 0.0949 µM) of the same molecule?
Its viability, T/C is 59.4%.

And the viability, T/C (second compound 0.03 µM, first compound 0.3 µM)?
Its viability, T/C is 60.4%.

What about the viability, T/C (second compound 0.0949 µM, first compound 0.000949 µM) of the same molecule?
The viability, T/C was 82.9%.

And the viability, T/C (second compound 0.0949 µM, first compound 0.003 µM)?
The viability, T/C was 68.2%.

And the viability, T/C (second compound 0.0949 µM, first compound 0.00949 µM)?
The viability, T/C was 65%.

What about the viability, T/C (second compound 0.0949 µM, first compound 0.03 µM) of the same molecule?
The viability, T/C was 55%.

And the viability, T/C (second compound 0.0949 µM, first compound 0.0949 µM)?
The viability, T/C was 65.7%.

What about the viability, T/C (second compound 0.0949 µM, first compound 0.3 µM) of the same molecule?
The viability, T/C was 63.7%.

And the viability, T/C (second compound 0.3 µM, first compound 0.000949 µM)?
The viability, T/C was 39.1%.

And the viability, T/C (second compound 0.3 µM, first compound 0.003 µM)?
Its viability, T/C is 49.9%.

What about the viability, T/C (second compound 0.3 µM, first compound 0.00949 µM) of the same molecule?
The viability, T/C was 48.5%.

And the viability, T/C (second compound 0.3 µM, first compound 0.03 µM)?
Its viability, T/C is 46.1%.

What about the viability, T/C (second compound 0.3 µM, first compound 0.0949 µM) of the same molecule?
Its viability, T/C is 48.8%.

What about the viability, T/C (second compound 0.3 µM, first compound 0.3 µM) of the same molecule?
The viability, T/C was 46.2%.

How did the IC50 (second compound 0.000949 µM) turn out when `Cc1nc(N2CCC3(CC2)COC(C)C3N)c(CO)nc1Sc1ccnc(N)c1Cl` (centres undefined) + CCn1c(-c2cc(N3CCN(C)CC3)cnc2C(C)OC)c2c3cc(ccc31)-c1csc(n1)CC(NC(=O)C1CC1C)C(=O)N1CCCC(N1)C(=O)OCC(C)(C)C2 was run?
Its IC50 is 0.093 µM.

What about the IC50 (second compound 0.003 µM) of the same molecule?
Its IC50 is < 0.0316 µM.

What about the IC50 (second compound 0.00949 µM) of the same molecule?
The IC50 was < 0.0316 µM.

And the IC50 (second compound 0.03 µM)?
The IC50 was < 0.0316 µM.

And the IC50 (second compound 0.0949 µM)?
Its IC50 is < 0.0316 µM.

And the IC50 (second compound 0.3 µM)?
Its IC50 is < 0.0316 µM.

And the viability, T/C (second compound 0.000949 µM, first compound 0.0316 µM)?
The viability, T/C was 68%.

What about the viability, T/C (second compound 0.000949 µM, first compound 0.1 µM) of the same molecule?
The viability, T/C was 48%.

What about the viability, T/C (second compound 0.000949 µM, first compound 0.316 µM) of the same molecule?
The viability, T/C was 32.7%.

What about the viability, T/C (second compound 0.000949 µM, first compound 1 µM) of the same molecule?
Its viability, T/C is 18.2%.

What about the viability, T/C (second compound 0.000949 µM, first compound 3.16 µM) of the same molecule?
Its viability, T/C is 11.3%.

What about the viability, T/C (second compound 0.000949 µM, first compound 10 µM) of the same molecule?
Its viability, T/C is 8.65%.

And the viability, T/C (second compound 0.003 µM, first compound 0.0316 µM)?
The viability, T/C was 32.3%.

What about the viability, T/C (second compound 0.003 µM, first compound 0.1 µM) of the same molecule?
Its viability, T/C is 23.9%.

What about the viability, T/C (second compound 0.003 µM, first compound 0.316 µM) of the same molecule?
The viability, T/C was 21.1%.

And the viability, T/C (second compound 0.003 µM, first compound 1 µM)?
Its viability, T/C is 14.9%.

And the viability, T/C (second compound 0.003 µM, first compound 3.16 µM)?
Its viability, T/C is 6.78%.

What about the viability, T/C (second compound 0.003 µM, first compound 10 µM) of the same molecule?
The viability, T/C was 5.16%.

And the viability, T/C (second compound 0.00949 µM, first compound 0.0316 µM)?
Its viability, T/C is 26%.

What about the viability, T/C (second compound 0.00949 µM, first compound 0.1 µM) of the same molecule?
Its viability, T/C is 15.7%.

What about the viability, T/C (second compound 0.00949 µM, first compound 0.316 µM) of the same molecule?
Its viability, T/C is 10.6%.

What about the viability, T/C (second compound 0.00949 µM, first compound 1 µM) of the same molecule?
The viability, T/C was 10.2%.

And the viability, T/C (second compound 0.00949 µM, first compound 3.16 µM)?
The viability, T/C was 6.57%.

What about the viability, T/C (second compound 0.00949 µM, first compound 10 µM) of the same molecule?
Its viability, T/C is 7.31%.

And the viability, T/C (second compound 0.03 µM, first compound 0.0316 µM)?
The viability, T/C was 13.2%.

And the viability, T/C (second compound 0.03 µM, first compound 0.1 µM)?
The viability, T/C was 11.6%.

And the viability, T/C (second compound 0.03 µM, first compound 0.316 µM)?
Its viability, T/C is 8.59%.

What about the viability, T/C (second compound 0.03 µM, first compound 1 µM) of the same molecule?
Its viability, T/C is 4.72%.

And the viability, T/C (second compound 0.03 µM, first compound 3.16 µM)?
The viability, T/C was 7.7%.

What about the viability, T/C (second compound 0.03 µM, first compound 10 µM) of the same molecule?
The viability, T/C was 5.42%.

What about the viability, T/C (second compound 0.0949 µM, first compound 0.0316 µM) of the same molecule?
Its viability, T/C is 10.1%.

What about the viability, T/C (second compound 0.0949 µM, first compound 0.1 µM) of the same molecule?
Its viability, T/C is 7.94%.

And the viability, T/C (second compound 0.0949 µM, first compound 0.316 µM)?
The viability, T/C was 6.73%.

And the viability, T/C (second compound 0.0949 µM, first compound 1 µM)?
Its viability, T/C is 6.62%.

What about the viability, T/C (second compound 0.0949 µM, first compound 3.16 µM) of the same molecule?
The viability, T/C was 6.38%.

And the viability, T/C (second compound 0.0949 µM, first compound 10 µM)?
Its viability, T/C is 3.71%.

What about the viability, T/C (second compound 0.3 µM, first compound 0.0316 µM) of the same molecule?
Its viability, T/C is 7.15%.

What about the viability, T/C (second compound 0.3 µM, first compound 0.1 µM) of the same molecule?
The viability, T/C was 6.24%.

And the viability, T/C (second compound 0.3 µM, first compound 0.316 µM)?
Its viability, T/C is 5.96%.

What about the viability, T/C (second compound 0.3 µM, first compound 1 µM) of the same molecule?
Its viability, T/C is 3.97%.

And the viability, T/C (second compound 0.3 µM, first compound 3.16 µM)?
The viability, T/C was 3.82%.

What about the viability, T/C (second compound 0.3 µM, first compound 10 µM) of the same molecule?
The viability, T/C was 4.35%.
